Assay results: the supplement of paper PMC10307832

Experiments:
Assay in all cases: relative viability (nuclei count vs DMSO), 5 days (fraction); higher = more cells survive
Pictilisib + Dasatinib = compound: CS(=O)(=O)N1CCN(Cc2cc3nc(-c4cccc5[nH]ncc45)nc(N4CCOCC4)c3s2)CC1 [Pictilisib] + Cc1nc(Nc2ncc(C(=O)Nc3c(C)cccc3Cl)s2)cc(N2CCN(CCO)CC2)n1 [Dasatinib] (partner 0.075 µM)
Summary of the method: (§1)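 Lung cancer cell lines, seeded in 1536-well plates, were treated the following day by pin tool with a single drug or with five library-drug doses (not always all listed) in √10 steps on top of a fixed anchor-drug dose. Cells were fixed and nuclei stained in one step after 5 days, and nuclei were counted. Relative viability is the nuclei count for treated wells divided by that for vehicle wells, reported as medians of duplicate plates.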

MK-2206 + Alpelisib = compound: NC1(c2ccc(-c3nc4ccn5c(=O)[nH]nc5c4cc3-c3ccccc3)cc2)CCC1 [MK-2206] + Cc1nc(NC(=O)N2CCC[C@H]2C(N)=O)sc1-c1ccnc(C(C)(C)C(F)(F)F)c1 [Alpelisib] (partner 2 µM)
Summary of the method: as §1

Pictilisib + Tozasertib = compound: CS(=O)(=O)N1CCN(Cc2cc3nc(-c4cccc5[nH]ncc45)nc(N4CCOCC4)c3s2)CC1 [Pictilisib] + Cc1cc(Nc2cc(N3CCN(C)CC3)nc(Sc3ccc(NC(=O)C4CC4)cc3)n2)n[nH]1 [Tozasertib] (partner 0.1 µM)
Summary of the method: as §1

Pictilisib + Vorinostat = compound: CS(=O)(=O)N1CCN(Cc2cc3nc(-c4cccc5[nH]ncc45)nc(N4CCOCC4)c3s2)CC1 [Pictilisib] + O=C(CCCCCCC(=O)Nc1ccccc1)NO [Vorinostat] (partner 1 µM)
Summary of the method: as §1

MK-2206 + Luminespib = compound: NC1(c2ccc(-c3nc4ccn5c(=O)[nH]nc5c4cc3-c3ccccc3)cc2)CCC1 [MK-2206] + CCNC(=O)c1noc(-c2cc(C(C)C)c(O)cc2O)c1-c1ccc(CN2CCOCC2)cc1 [Luminespib] (partner 0.01 µM)
Summary of the method: as §1

Row | Cell Line | relative viability (Pictilisib + Dasatinib; first compound 0.02 µM) | relative viability (Pictilisib + Dasatinib; first compound 0.06325 µM) | relative viability (Pictilisib + Dasatinib; first compound 0.6325 µM) | relative viability (Pictilisib + Dasatinib; first compound 2 µM) | relative viability (MK-2206 + Alpelisib; first compound 0.01 µM) | relative viability (MK-2206 + Alpelisib; first compound 0.03162 µM) | relative viability (MK-2206 + Alpelisib; first compound 0.3162 µM) | relative viability (MK-2206 + Alpelisib; first compound 1 µM) | relative viability (Pictilisib + Tozasertib; first compound 0.02 µM) | relative viability (Pictilisib + Tozasertib; first compound 0.06325 µM) | relative viability (Pictilisib + Tozasertib; first compound 0.6325 µM) | relative viability (Pictilisib + Tozasertib; first compound 2 µM) | relative viability (Pictilisib + Vorinostat; first compound 0.02 µM) | relative viability (Pictilisib + Vorinostat; first compound 0.06325 µM) | relative viability (Pictilisib + Vorinostat; first compound 0.6325 µM) | relative viability (Pictilisib + Vorinostat; first compound 2 µM) | relative viability (MK-2206 + Luminespib; first compound 0.01 µM) | relative viability (MK-2206 + Luminespib; first compound 0.03162 µM) | relative viability (MK-2206 + Luminespib; first compound 0.3162 µM) | relative viability (MK-2206 + Luminespib; first compound 1 µM)
1 | EMC-BAC-2 | 0.317 | 0.324 | 0.247 | 0.199 | 0.768 | 0.764 | 0.729 | 0.693 | 0.304 | 0.31 | 0.297 | 0.242 | 0.88 | 0.615 | 0.337 | 0.286 | 1.22 | 1.18 | 1.08 | 1.07
2 | NCI-H1944 | 0.231 | 0.186 | 0.164 | 0.173 | 0.912 | 0.834 | 0.833 | 0.752 | 0.254 | 0.234 | 0.195 | 0.148 | 0.61 | 0.494 | 0.375 | 0.201 | 0.729 | 0.806 | 0.685 | 0.676
3 | A-427 | 0.666 | 0.616 | 0.648 | 0.347 | 1.12 | 1.12 | 1.06 | 1.08 | 0.202 | 0.187 | 0.19 | 0.145 | 0.84 | 0.874 | 0.95 | 0.853 | 0.882 | 0.947 | 0.975 | 0.901
4 | NCI-H520 | 0.176 | 0.135 | 0.146 | 0.114 | 0.939 | 0.819 | 0.561 | 0.355 | 0.413 | 0.412 | 0.234 | 0.232 | 0.794 | 0.73 | 0.353 | 0.203 | 0.213 | 0.214 | 0.203 | 0.207
5 | NCI-H650 | 0.498 | 0.497 | 0.41 | 0.333 | 1.09 | 1.15 | 1.11 | 0.983 | 0.733 | 0.76 | 0.66 | 0.478 | 0.533 | 0.427 | 0.378 | 0.164 | 0.747 | 0.86 | 0.897 | 0.788
6 | COR-L 105 | 0.414 | 0.283 | 0.209 | 0.181 | 0.98 | 0.951 | 0.825 | 0.677 | 0.33 | 0.303 | 0.344 | 0.292 | 0.91 | 0.874 | 0.594 | 0.606 | 0.868 | 0.803 | 0.888 | 0.729
7 | NCI-H1755 | 0.406 | 0.415 | 0.246 | 0.187 | 0.919 | 0.93 | 0.881 | 0.863 | 0.548 | 0.605 | 0.475 | 0.356 | 0.795 | 0.812 | 0.642 | 0.354 | 0.411 | 0.636 | 0.469 | 0.346
8 | NCI-H2085 | 0.241 | 0.22 | 0.198 | 0.18 | 0.928 | 0.914 | 0.807 | 0.702 | 0.765 | 0.733 | 0.52 | 0.3 | 0.792 | 0.832 | 0.498 | 0.319 | 0.508 | 0.393 | 0.489 | 0.384
9 | NCI-H2023 | 0.556 | 0.509 | 0.182 | 0.0932 | 0.517 | 0.598 | 0.472 | 0.405 | 0.416 | 0.403 | 0.197 | 0.0836 | 0.685 | 0.662 | 0.35 | 0.178 | 0.681 | 0.66 | 0.619 | 0.413
10 | HOP-62 | 0.627 | 0.573 | 0.43 | 0.26 | 1.14 | 0.925 | 1.03 | 0.914 | 0.319 | 0.415 | 0.369 | 0.304 | 0.676 | 0.573 | 0.566 | 0.348 | 0.91 | 0.899 | 0.919 | 0.854
